Data published in paper PMC6563031, “Polyketides from the Mangrove-Derived Endophytic Fungus Cladosporium cladosporioides” (Marine Drugs, 2019).
In brackets after ≈: the same amount, converted by molar mass. Like-named read-outs stand apart in the source and are kept apart here.

What was measured:
[1] = tested on: Pseudomonas aeruginosa QDIO-4; assay: Antimicrobial 96-well microtiter plate assay, P. aeruginosa; format: cell-based; conditions: amphotericin B as positive control (as footnoted)
[2] = tested on: Bipolaris sorokiniana QDAU-5; assay: Antimicrobial 96-well microtiter plate assay, B. sorokiniana; format: cell-based
[3] = tested on: F. oxysporum f. sp. cucumerinum QDAU-8; assay: Antimicrobial 96-well microtiter plate assay, F. oxysporum f. sp. cucumerinum; format: cell-based, Fusarium oxysporum f. sp. cucumerinum; conditions: amphotericin B as positive control
[4] = tested on: Glomerella cingulate QDAU-12; assay: Antimicrobial 96-well microtiter plate assay, G. cingulate; format: cell-based; conditions: amphotericin B as positive control
[5] = tested on: Edwardsiella ictarda QDIO-9; assay: Antimicrobial 96-well microtiter plate assay, E. ictarda; format: cell-based; conditions: chloramphenicol as positive control
E. tarda QDIO-2 = assay: Antimicrobial 96-well microtiter plate assay, E. tarda; format: cell-based, Edwardsiella tarda
Escherichia coli EMBLC-1 = assay: Antimicrobial 96-well microtiter plate assay, E. coli; format: cell-based
[6] = tested on: Staphylococcus aureus EMBLC-2; assay: Antimicrobial 96-well microtiter plate assay, S. aureus; format: cell-based
[7] = Pseudomonas aeruginosa, QDIO4, P. aeruginosa, read-out: MIC
[8] = Bipolaris sorokiniana, QDAU5, amphotericin B as positive control, read-out: MIC
[9] = Fusarium oxysporum, read-out: MIC
[10] = Edwardsiella, QDIO9, E. ictarda, read-out: MIC
[11] = Edwardsiella tarda, QDIO2, chloramphenicol as positive control, read-out: MIC
[12] = Escherichia coli, EMBLC1, chloramphenicol as positive control, read-out: MIC
[13] = Staphylococcus aureus, EMBLC2, chloramphenicol as positive control, read-out: MIC
[14] = chloramphenicol as positive control

Compound: C[C@@H]1[C@H](O)[C@@H](C)/C=C/C=C/C=C/C=C/C=C/C=C/C=C/[C@H](O[C@@H]2O[C@H](C)[C@@H](O)[C@H](N)[C@@H]2O)C[C@@H]2O[C@](O)(C[C@@H](O)C[C@@H](O)[C@H](O)CC[C@@H](O)C[C@@H](O)CC(=O)O[C@H]1C)C[C@H](O)[C@H]2C(=O)O [Amphotericin B, reference compound]
- MIC [1, 7]: 2 µg/mL (≈ 2.16 µM)
- MIC [2, 8]: 0.5 µg/mL (≈ 0.541 µM)
- MIC [3, 9]: 0.5 µg/mL (≈ 0.541 µM)
- MIC ([4]; read-out: MIC): 0.5 µg/mL (≈ 0.541 µM)

Compound: O=C(N[C@H](CO)[C@H](O)c1ccc([N+](=O)[O-])cc1)C(Cl)Cl [Chloramphenicol, reference compound]
- MIC [5, 10]: 0.5 µg/mL (≈ 1.55 µM)
- MIC (E. tarda QDIO-2; [11]): 0.5 µg/mL (≈ 1.55 µM)
- MIC (Escherichia coli EMBLC-1; [12]): 2 µg/mL (≈ 6.19 µM)
- MIC [6, 13]: 1 µg/mL (≈ 3.09 µM)

Compound: CC1CC=CCCC(O)CCCC(=O)O1 (stereo not drawn) [Compound 1, 5R-hydroxyrecifeiolide]
- MIC [1, 7]: 32 µg/mL (≈ 151 µM)
- MIC [5, 10]: 32 µg/mL (≈ 151 µM)
- MIC [2, 8]: > 64 µg/mL
- MIC [3, 9]: > 64 µg/mL
- MIC (E. tarda QDIO-2; [11]): > 64 µg/mL
- MIC (Escherichia coli EMBLC-1; [12]): > 64 µg/mL
- MIC [6, 13]: > 64 µg/mL
- MIC [4]: – ((–) = MIC > 64 μg/mL)

Compound: CC1CC=CCCC(O)CCCC(=O)O1 (stereo not drawn) [Compound 2, 5S-hydroxyrecifeiolide]
- MIC ([1]; P. aeruginosa): – ((–) = MIC > 64 μg/mL)
- MIC ([5]; E. ictarda): – ((–) = MIC > 64 μg/mL)
- MIC ([2]; amphotericin B as positive control): – ((–) = MIC > 64 μg/mL)
- MIC [3]: – ((–) = MIC > 64 μg/mL)
- MIC (E. tarda QDIO-2; [14]): – ((–) = MIC > 64 μg/mL)
- MIC (Escherichia coli EMBLC-1; [14]): – ((–) = MIC > 64 μg/mL)
- MIC [6, 14]: – ((–) = MIC > 64 μg/mL)
- MIC [4]: 16 µg/mL (≈ 75.4 µM)

Compound: CC(O)CCCCCCC1OC(=O)CC1O (stereo not drawn) [Compound 3, ent-cladospolide F]
- MIC [1, 7]: 64 µg/mL (≈ 278 µM)
- MIC [5, 10]: 16 µg/mL (≈ 69.5 µM)
- MIC [2, 8]: > 64 µg/mL
- MIC [3, 9]: > 64 µg/mL
- MIC (E. tarda QDIO-2; [11]): > 64 µg/mL
- MIC (Escherichia coli EMBLC-1; [12]): > 64 µg/mL
- MIC [6, 13]: 8 µg/mL (≈ 34.7 µM)
- MIC ([4]; read-out: MIC): > 64 µg/mL

Compound: CC(=O)OC(C)CCCCCCC1OC(=O)CC1O (centres unmarked) [Compound 4, cladospolide G]
- MIC [1, 7]: > 64 µg/mL
- MIC [5, 10]: > 64 µg/mL
- MIC [2, 8]: 32 µg/mL (≈ 117 µM)
- MIC [3, 9]: 1 µg/mL (≈ 3.67 µM)
- MIC (E. tarda QDIO-2; [11]): > 64 µg/mL
- MIC (Escherichia coli EMBLC-1; [12]): 32 µg/mL (≈ 117 µM)
- MIC [6, 13]: > 64 µg/mL
- MIC ([4]; read-out: MIC): 1 µg/mL (≈ 3.67 µM)

Compound: CC(O)CCCCCC(O)C1C=CC(=O)O1 (centres unmarked) [Compound 6, iso-cladospolide B]
- MIC [1, 7]: > 64 µg/mL
- MIC [5, 10]: 16 µg/mL (≈ 70.1 µM)
- MIC [2, 8]: > 64 µg/mL
- MIC [3, 9]: > 64 µg/mL
- MIC (E. tarda QDIO-2; [11]): 32 µg/mL (≈ 140 µM)
- MIC (Escherichia coli EMBLC-1; [12]): 32 µg/mL (≈ 140 µM)
- MIC [6, 13]: > 64 µg/mL
- MIC ([4]; read-out: MIC): 64 µg/mL (≈ 280 µM)

Compound: C[C@H]1CCCCC[C@H](O)C(=O)[C@H](O)CC(=O)O1 [Compound 7, pandangolide 1]
- MIC [1, 7]: 32 µg/mL (≈ 131 µM)
- MIC [5, 10]: 4 µg/mL (≈ 16.4 µM)
- MIC [2, 8]: > 64 µg/mL
- MIC [3, 9]: > 64 µg/mL
- MIC (E. tarda QDIO-2; [11]): > 64 µg/mL
- MIC (Escherichia coli EMBLC-1; [12]): > 64 µg/mL
- MIC [6, 13]: 32 µg/mL (≈ 131 µM)
- MIC ([4]; read-out: MIC): 1 µg/mL (≈ 4.09 µM)
